Experimental data taken from patent publication US20040152783A1, “Controlled absorption of admixed thyroid hormone formulations” (priority 2002, published 2004).
Like-named read-outs stand apart in the source and are kept apart here.

Test: Kinetics of T3 absorption after oral dosing in rats; total serum T3 by ELISA
Type: in vivo, Sprague-Dawley rats
Conditions: for Peak of Delta Curve: oral solution; for Peak of Delta Curve / Deltamax / delta AUC / Tmax: serum TT3; for Percent T3 sodium (AUC 0-24) / Percent T3 sodium (Deltamax) / Percent T3 sodium (Peak of Delta Curve) / Percent T3 sodium (Tmax) / AUC* (0-24) / Deltamax / delta AUC / Tmax: oral; for AUC* (0-24): from mean delta TT3 curve above 0 hour value
Description: Defined μg/kg doses were delivered as oral solutions in 0.5% sodium bicarbonate buffer. Rats were dosed immediately following 0 hour serum collection. Serum was collected from rats at two, four, six, nine, 12 and 24 hours after dosing. Total serum T3 concentrations were determined by ELISA using a commercially available kit (Total Triiodothyronine (total T3) ELISA KIT, product #1700, ALPHA DIAGNOSTIC™, San Antonio, Tex.).

[1] = Example 1, T3 sodium 12 μg/kg vs T4 sodium 162 plus T3 sodium 12 μg/kg (13.5:1)
[2] = Example 2, T3 sodium 6 μg/kg vs T4 sodium 54 plus T3 sodium 6 μg/kg (9:1)
[3] = Example 3, T3 sodium 4 μg/kg vs T4 sodium 16 plus T3 sodium 4 μg/kg (4:1)
[4] = Example 4, T3 sodium 4 μg/kg vs T4 sodium 4 plus T3 sodium 4 μg/kg (1:1)
[5] = Example 5, T3 sodium 15 μg/kg vs T4 sodium 6 plus T3 sodium 15 μg/kg (0.4:1)
[6] = Example 6, T3 sodium 15 μg/kg vs T4 sodium 1.5 plus T3 sodium 15 μg/kg (0.1:1)

SMILES: N[C@@H](Cc1cc(I)c(Oc2ccc(O)c(I)c2)c(I)c1)C(=O)O [T3 sodium, liothyronine sodium]
- Peak of Delta Curve (Example 1, T3 sodium 12 μg/kg alone vs T4 sodium 162 μg/kg plus T3 sodium 12 μg/kg (T4:T3 13.5:1)): 142 ng/dL
- Percent T3 sodium (AUC 0-24) [1]: 100%
- Percent T3 sodium (Deltamax) [1]: 100%
- Percent T3 sodium (Peak of Delta Curve) [1]: 100%
- Percent T3 sodium (Tmax) [1]: 100%
- AUC* (0-24) [1]: 1,469 ng/dLh
- Deltamax [1]: 156 ng/dL
- delta AUC [1]: 1,471 ng/dL·hr
- Peak of Delta Curve (Example 2, T3 sodium 6 μg/kg alone vs T4 sodium 54 μg/kg plus T3 sodium 6 μg/kg (T4:T3 9:1)): 232 ng/dL
- Percent T3 sodium (AUC 0-24) [2]: 100%
- Percent T3 sodium (Deltamax) [2]: 100%
- Percent T3 sodium (Peak of Delta Curve) [2]: 100%
- Percent T3 sodium (Tmax) [2]: 100%
- AUC* (0-24) [2]: 2,212 ng/dLh
- Deltamax [2]: 232 ng/dL
- delta AUC [2]: 2,384 ng/dL·hr
- Peak of Delta Curve (Example 3, T3 sodium 4 μg/kg alone vs T4 sodium 16 μg/kg plus T3 sodium 4 μg/kg (T4:T3 4:1)): 65 ng/dL
- Percent T3 sodium (AUC 0-24) [3]: 100%
- Percent T3 sodium (Deltamax) [3]: 100%
- Percent T3 sodium (Peak of Delta Curve) [3]: 100%
- Percent T3 sodium (Tmax) [3]: 100%
- AUC* (0-24) [3]: 1,193 ng/dLh
- Deltamax [3]: 69 ng/dL
- delta AUC [3]: 1,193 ng/dL·hr
- Peak of Delta Curve (Example 4, T3 sodium 4 μg/kg alone vs T4 sodium 4 μg/kg plus T3 sodium 4 μg/kg (T4:T3 1:1)): 65 ng/dL
- Percent T3 sodium (AUC 0-24) [4]: 100%
- Percent T3 sodium (Deltamax) [4]: 100%
- Percent T3 sodium (Peak of Delta Curve) [4]: 100%
- Percent T3 sodium (Tmax) [4]: 100%
- AUC* (0-24) [4]: 1,193 ng/dLh
- Deltamax [4]: 69 ng/dL
- Tmax [4]: 2.4 h
- delta AUC [4]: 1,193 ng/dL·hr
- Peak of Delta Curve (Example 5, T3 sodium 15 μg/kg alone vs T4 sodium 6 μg/kg plus T3 sodium 15 μg/kg (T4:T3 0.4:1)): 167 ng/dL
- Percent T3 sodium (AUC 0-24) [5]: 100%
- Percent T3 sodium (Deltamax) [5]: 100%
- Percent T3 sodium (Peak of Delta Curve) [5]: 100%
- Percent T3 sodium (Tmax) [5]: 100%
- AUC* (0-24) [5]: 1,732 ng/dLh
- Deltamax [5]: 170 ng/dL
- delta AUC [5]: 1,732 ng/dL·hr
- Peak of Delta Curve (Example 6, T3 sodium 15 μg/kg alone vs T4 sodium 1.5 μg/kg plus T3 sodium 15 μg/kg (T4:T3 0.1:1)): 138 ng/dL
- Percent T3 sodium (AUC 0-24) [6]: 100%
- Percent T3 sodium (Deltamax) [6]: 100%
- Percent T3 sodium (Peak of Delta Curve) [6]: 100%
- Percent T3 sodium (Tmax) [6]: 100%
- AUC* (0-24) [6]: 1,762 ng/dLh
- Deltamax [6]: 146 ng/dL
- delta AUC [6]: 1,762 ng/dL·hr
- Tmax (Sprague-Dawley, rat, 15 ug/kg, Example 6, T3 sodium 15 μg/kg vs T4 sodium 1.5 plus T3 sodium 15 μg/kg (0.1:1), read-out: Tmax): 5.6 h
- Tmax (Sprague-Dawley, rat, Example 1, T3 sodium 12 μg/kg vs T4 sodium 162 plus T3 sodium 12 μg/kg (13.5:1), read-out: Tmax): 5.2 h
- Tmax (Sprague-Dawley, rat, Example 2, T3 sodium 6 μg/kg vs T4 sodium 54 plus T3 sodium 6 μg/kg (9:1), read-out: Tmax): 2 h
- Tmax (Sprague-Dawley, rat, Example 3, T3 sodium 4 μg/kg vs T4 sodium 16 plus T3 sodium 4 μg/kg (4:1), read-out: Tmax): 2.4 h
- Tmax (Sprague-Dawley, rat, Example 5, T3 sodium 15 μg/kg vs T4 sodium 6 plus T3 sodium 15 μg/kg (0.4:1), read-out: Tmax): 4.6 h
